In one data set the test system is HIV-1. To be noted: cited from earlier work.
The subject of data set [1] is HIV-1 (CEM cells chronically infected with HIV-1). Description: Anti-retroviral activity in CEM cells chronically infected with HIV-1, soluble formazan assay. It counts as cell-based. As to conditions: Human immunodeficiency virus 1, CCRF-CEM. The protocol:
Using the soluble formazan assay described by Weislow et al. (J. Nat'l. Cancer Inst., 81, 577-586 (1989)), CEM cells chronically infected with HIV-1 were used to assay the anti-retroviral activity of test compounds described herein. The concentration of compound that inhibits 50% of viral activity (EC50; determined as described in Weislow et al. (1989), supra) and the inhibition constant (Ki, as defined in Example 7) for the compound were determined.

A short description of a further data set: in vitro. As to conditions: human, cem cells.
The test system of the next data set is CEM cells. The data set is described as follows: Toxicity (IC50) in CEM cells, soluble formazan assay.
For a further data set, the system named is α-1 acid glycoprotein. Description: In vitro activity in the presence of α-1 acid glycoprotein.
Data set [2] can be described thus: Toxicity (IC50) in CEM cells, soluble formazan assay. As to conditions: human, cem cells.
Setting [3] is: comparison table, literature values by footnote.
[4] abbreviates: comparison table, read-out: EC50.

Entries after “also recorded” stand apart in the source; their conditions may differ. Read-outs that look alike come from different tables or passages of the source. Where only a bound is given, the exact number is not on record here.

For orientation: EC90 means the concentration needed for an effect of 90%. With `CC(C)CN(C[C@@H](O)[C@H](Cc1ccccc1)NC(=O)O[C@H]1CCOC1)S(=O)(=O)c1ccc(N)cc1` [VX-478], the EC90 in the data set with HIV-1 (comparison table, Kim et al., 1995, read-out: EC90 (EC50 column, footnote b)) was 40 nM.

The EC50 is the concentration at which the effect is half-maximal. As to `CC(C)(C)NC(=O)[C@@H]1C[C@@H]2CCCC[C@@H]2CN1C[C@@H](O)[C@H](Cc1ccccc1)NC(=O)[C@H](CC(N)=O)NC(=O)c1ccc2ccccc2n1` [Sequinavir], the concentration for a half-maximal effect (EC50) in the data set on HIV-1 (Example 13, literature values) was 10 nM; with HIV-1 (setting [3]) it was 10 nM.

Regarding `CC(C)c1nc(CN(C)C(=O)N[C@H](C(=O)N[C@@H](Cc2ccccc2)C[C@H](O)[C@H](Cc2ccccc2)NC(=O)OCc2cncs2)C(C)C)cs1` [Ritonavir], the EC50 was 36 nM in the data set on HIV-1 (Example 13, literature values) and 36 nM in the data set with HIV-1 (setting [3]).

What is called IC50 is the concentration that gives 50% inhibition. A higher IC50 goes with lower potency. Take `CC(C)[C@H](NC(=O)N(C)Cc1ccccn1)C(=O)N[C@@H](Cc1ccccc1)[C@H](O)[C@H](O)[C@H](Cc1ccccc1)NC(=O)[C@@H](NC(=O)N(C)Cc1ccccn1)C(C)C` [A-77003, reference compound]: the EC50 in data set [1] (setting [4]) was 140 nM; in the data set with HIV-1 (Example 13, literature values), 200 nM. Further, in “in vitro”, the selectivity ratio is greater than 71. For the same compound, the IC50 in the data set with CEM cells (Homo sapiens, CCRF-CEM) is greater than 10000 nM.

Regarding `CSC[C@H](NC(=O)COc1cccc2cnccc12)C(=O)N[C@@H](Cc1ccccc1)[C@H](O)C(=O)N1CSC[C@H]1C(=O)NC(C)(C)C` [KNI-272, reference compound], the EC50 in data set [1] (Example 13, CEM cells, read-out: EC50) was 4.2 nM; in data set [1] (setting [4]), 28 nM. Moreover, the selectivity ratio in “in vitro” is greater than 3570. In the data set on CEM cells (Homo sapiens, CCRF-CEM), this compound displayed an IC50 greater than 100000 nM.

For the compound `CC(C)(C)NC(=O)[C@@H]1CN(Cc2cccnc2)CCN1C[C@@H](O)C[C@@H](Cc1ccccc1)C(=O)N[C@H]1c2ccccc2C[C@H]1O` [Indinavir], in the data set with HIV-1 (setting [3]), the EC50 is 50 nM.

Turning to `CC(C)C(NC(=O)OCc1ccccc1)C(=O)N[C@@H](Cc1ccccc1)[C@@H](O)[C@@H](O)[C@H](Cc1ccccc1)NC(=O)c1ccccc1NC(=O)OCc1ccccn1` (stereo partly shown) [DN-14], the EC50 in data set [1] (Example 13, CEM cells) came to 6.5 nM; in data set [1] (comparison table), 6 nM. Besides, the “in vitro activity in presence of α-1 acid glycoprotein” value with α-1 acid glycoprotein is on record as “not affected by the presence of α-1 acid glycoprotein; also recorded: unaffected in the presence of α-1 acid glycoprotein”. In addition, the selectivity ratio in data set [2] is greater than 16700. Besides, the “toxicity (from IC50/EC50)” value with CEM cells (Example 13) is “not toxic”. Besides, the 50% inhibitory concentration (IC50) in the data set with CEM cells (Example 13, unit inferred) was greater than 100000 nM; with CEM cells (Homo sapiens, CCRF-CEM) it was greater than 100000 nM; in the data set with CEM cells (comparison table), greater than 100000 nM.

(Values after patent US5763464A, “Retroviral agents containing anthranilamide, substituted benzamide and other subunits, and methods of using same” (The United States of America as represented by the …, priority 1995, dated 1998).)
